Experimental data from patent publication US11571485B2, “Peptides and antibodies for detecting changes in alzheimer's disease brain and methods of use thereof” (Sanford Burnham Prebys Medical Discovery Institute, priority 2016, dated 2023).

Key:
AD hippocampus = assay: Homing of intravenously injected individual peptide-displaying phages; assay type: in vivo, mouse; details: intravenously injected phage displaying the peptide
Source text: FIG. 1B relates to phage titration showing that about 5 times more phage were recovered from the AD hippocampus than from the normal control. In the sequencing, phages displaying the peptides code named CASP (SEQ ID NO: 3; CASPRLSKC), CES (SEQ ID NO: 11, CESPLLSEC), and DAG (SEQ ID NO: 102, CDAGRKQKC) dominated. Hippocampus from age-matched normal wild-type mouse brain was used as a control.

Tg2576 mouse brain = assay: In vivo homing of FAM-DAG in Tg2576 mice
Procedure: (§1) All animal experiments were conducted under an approved protocol of the Institutional Animal Care and Use Committee of Sanford Burnham Prebys Medical Discovery Institute. The following transgenic mouse models were used for peptide homing studies—hAPP-J20 ([…], Nature genetics 1, 345-347 (1992)), Tg2576 (Jacobsen et al., Proc Natl Acad Sci USA 103, 5161-5166 (2006)), and mTHY-1-α-synuclein model (Chesselet et al., Neurotherapeutics 9, 297-314 (2012)). The P13 glioblastoma model is a patient-derived orthotopic xenograft model (Bougnaud et al., Oncotarget, (2016)). Spheroids were cultured as described previously (Bjerkvig et al., J Neurosurg 72, 463-475 (1990)). After two weeks in culture, spheroids (volume 2.5 μl) were stereotactically implanted into the brains of nude mice. Mice were used approximately 6 weeks after tumors were induced, when mice started presenting neurological symptoms. The acute brain injury model was setup as previously described (Mann et al., Nature communications 7, 11980 (2016)). Briefly, 8 to 10 week-old male BL6 mice were anaesthetized with 4% isoflurane in 70% N2O and 30% O2, and a 5-mm craniotomy was performed using a portable drill and a trephine over the right parietotemporal cortex using a stereotactic frame. […]

recombinant human CTGF = molecular target: T1, recombinant human CTGF (Homo sapiens, UniProt P29279); assay: ELISA binding to recombinant CTGF
T1 construct: purchased Affymetrix 14-8503-80
T1 sequence (P29279 253-349 limits assumed): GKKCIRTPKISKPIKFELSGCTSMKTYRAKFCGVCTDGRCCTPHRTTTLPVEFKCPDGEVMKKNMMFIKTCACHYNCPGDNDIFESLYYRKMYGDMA
Procedure: FIG. 10 is a graphical representation relating to identification of a receptor for DAG. DAG binds to recombinant CTGF. FAM-DAG was incubated on ELISA plate coated with recombinant human CTGF at two different peptide concentrations of the FAM peptide alone (light gray bars), or in the presence of non-labeled DAG (0.5 mM) (dark gray bars). […] DAG was also shown to colocalize with CTGF. FAM-DAG was intravenously injected in 9-month-old hAPP-J20 and WT mice, allowed to circulate for 30 minutes, after which mice were perfused, and the brains were fixed, sectioned and stained for FAM (green) and CTGF (red).
Human CTGF recombinant protein (Affymetrix Cat #14-8503-80) was incubated on Nunc low-binding plates at concentration of 10 μg/ml for overnight at 4° C. Excess protein in the plates was removed by washing with PBS-T (PBS with 0.005% Tween 20). Plates were blocked with 200 μl of 3% non-fat milk in PBS for 1 hour at room temperature and washed with PBS-T once. Biotin-labeled peptide (at different concentrations) in PBS was added to the plate for 2 hours at 37° C. For peptide inhibition, non-labeled DAG peptide (0.5 mM) was added 30 minutes prior to addition of labeled peptide. The plates were washed with 100 μl PBS-T for three times to remove excess peptide. The bound peptide was detected by incubating with 100 μl of Vectastain ABC™ reagent (Vector labs, Burlingame, Calif.) for 30 minutes. The plate was washed with 100 μl PBS-T three times. Next, 100 μl of o-phenylenediamine dihydrochloride (OPD) silver and gold substrate (Sigma-Aldrich) was added to the wells and incubated at room temperature until visible color was observed (˜30 min). Adding 50 μl of 1 M H2SO4 stopped the reaction and the plate was read at 495 nm (FlexStation™ 3 Reader, Molecular Devices, Sunnyvale, Calif., USA).

[1] = system: acute penetrating brain injury; assay: In vivo homing in acute penetrating brain injury model; parameters: species or system mouse; details: injected 6 hours after injury
Procedure: as §1

CDAGRKQKC
Phage accumulation in normal brain (AD hippocampus): no accumulation in normal brain | Phage homing to AD hippocampus (AD hippocampus): home to AD hippocampus with high specificity | Colocalization in Tg2576 brain sections (Tg2576 mouse brain; DAG-injected Tg2576 mice, immunostaining): significant colocalization of DAG with Aβ and CD31 | Homing in Tg2576 model (Tg2576 mouse brain; i.v. FAM-DAG): detected both in the hippocampus and in the cortex | Binding to CTGF-coated plates (recombinant human CTGF; ELISA): bound to CTGF-coated plates in a dose-dependent manner | Inhibition of CTGF binding by unlabeled DAG (recombinant human CTGF; non-labeled DAG 0.5 mM): inhibited in the presence of an excess of unlabeled DAG | Homing to brain injury [1]: robustly homed to the perilesional area containing activated hypertrophic astrocytes
